Reference: ChEMBL document CHEMBL1152163, “Development of novel 2-[4-(aminoalkoxy)phenyl]-4(3H)-quinazolinone derivatives as potent and selective histamine H3 receptor inverse agonists” (Bioorg Med Chem Lett, 2008)

Assays:
[1] = target: T1, Alpha-1A adrenergic receptor (Homo sapiens, UniProt P35348); test: Displacement of [3H]prazosin from human adrenergic alpha1A receptor expressed in LMtk- cells; assay type: cell-based
T1 sequence (P35348 whole entry): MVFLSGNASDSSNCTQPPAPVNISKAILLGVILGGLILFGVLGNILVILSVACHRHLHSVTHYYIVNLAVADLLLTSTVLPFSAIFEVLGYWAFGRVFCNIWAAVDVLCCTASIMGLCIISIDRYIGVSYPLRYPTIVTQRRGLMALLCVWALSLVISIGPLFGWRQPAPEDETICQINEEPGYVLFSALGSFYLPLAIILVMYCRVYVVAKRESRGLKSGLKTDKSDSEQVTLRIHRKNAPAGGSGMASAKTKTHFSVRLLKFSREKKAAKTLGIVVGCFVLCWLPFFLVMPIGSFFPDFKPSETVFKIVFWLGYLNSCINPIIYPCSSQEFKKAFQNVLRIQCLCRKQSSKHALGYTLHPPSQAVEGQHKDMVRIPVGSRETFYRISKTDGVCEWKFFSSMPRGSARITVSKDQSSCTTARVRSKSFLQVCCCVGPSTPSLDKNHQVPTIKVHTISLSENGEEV

Histamine H1 receptor = Histamine H1 receptor (Homo sapiens, UniProt P35367); test: Inhibition of human histamine H1 receptor
Histamine H2 receptor = Histamine H2 receptor (Homo sapiens, UniProt P25021); test: Inhibition of human histamine H2 receptor
Histamine H4 receptor = Histamine H4 receptor (Homo sapiens, UniProt Q9H3N8); test: Inhibition of human histamine H4 receptor
Rattus norvegicus [2] = test: Plasma clearance in Sprague-Dawley rat at 1 mg/kg, iv; assay type: ADME, organism-based; design: dose 1 mg/kg, route intravenous; settings: in vivo
[3] = Volume of distribution at steady state in Sprague-Dawley rat at 1 mg/kg, iv; assay type: ADME, organism-based; design: dose 1 mg/kg, route intravenous; settings: in vivo, read-out: Vdss
[4] = Half life in Sprague-Dawley rat at 1 mg/kg, iv; assay type: ADME, organism-based; design: dose 1 mg/kg, route intravenous; settings: in vivo
[5] = Cmax in Sprague-Dawley rat at 3 mg/kg, po; assay type: ADME, organism-based; design: dose 3 mg/kg, route oral; settings: in vivo
[6] = AUC (0 to infinity) in Sprague-Dawley rat at 3 mg/kg, po; assay type: ADME, organism-based; design: time infinity, dose 3 mg/kg, route oral; settings: plasma
[7] = Oral bioavailability in Sprague-Dawley rat; assay type: ADME, organism-based; settings: in vivo
Brain = test: Drug level in Sprague-Dawley rat brain at 10 mg/kg, po; assay type: ADME, organism-based; design: dose 10 mg/kg, route oral; settings: in vivo
Rattus norvegicus [8] = test: Plasma concentration in Sprague-Dawley rat at 10 mg/kg, po; assay type: ADME, organism-based; design: dose 10 mg/kg, route oral; settings: in vivo
Rattus norvegicus [9] = test: Increase in tele-methylhistamine level in po dosed Sprague-Dawley rat brain; assay type: functional, organism-based

Histamine H1 receptor, sequence (P35367 whole entry): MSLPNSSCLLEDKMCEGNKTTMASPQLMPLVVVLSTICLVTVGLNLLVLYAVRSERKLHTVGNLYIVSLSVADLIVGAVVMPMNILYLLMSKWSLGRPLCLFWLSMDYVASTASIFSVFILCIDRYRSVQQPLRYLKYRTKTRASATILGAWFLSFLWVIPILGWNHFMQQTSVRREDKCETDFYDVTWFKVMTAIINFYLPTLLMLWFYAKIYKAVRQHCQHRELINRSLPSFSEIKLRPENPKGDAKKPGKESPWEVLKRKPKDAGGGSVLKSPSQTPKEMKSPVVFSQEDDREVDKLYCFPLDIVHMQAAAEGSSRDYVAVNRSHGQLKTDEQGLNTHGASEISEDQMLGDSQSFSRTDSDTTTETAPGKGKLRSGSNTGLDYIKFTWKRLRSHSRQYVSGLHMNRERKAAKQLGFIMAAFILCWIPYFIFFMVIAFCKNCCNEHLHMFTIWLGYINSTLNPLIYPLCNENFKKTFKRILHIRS
Histamine H2 receptor, sequence (P25021 whole entry): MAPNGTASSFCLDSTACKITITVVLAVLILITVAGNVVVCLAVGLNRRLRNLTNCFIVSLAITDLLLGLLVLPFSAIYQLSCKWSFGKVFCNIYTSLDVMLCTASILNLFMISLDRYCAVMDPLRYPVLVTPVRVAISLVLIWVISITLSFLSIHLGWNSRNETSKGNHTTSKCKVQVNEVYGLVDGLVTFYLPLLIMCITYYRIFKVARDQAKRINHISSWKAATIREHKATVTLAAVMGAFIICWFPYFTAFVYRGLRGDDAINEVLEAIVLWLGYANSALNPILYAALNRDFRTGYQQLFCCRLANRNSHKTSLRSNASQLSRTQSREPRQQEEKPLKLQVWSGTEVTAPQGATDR

| IC50 [1] | SMILES | also measured |
| --- | --- | --- |
| 7.2 µM | O=c1c2ccccc2nc(-c2ccc(OCCCN3CCCCC3)cc2)n1Cc1ccccc1 |  |
| 5.9 µM | COc1ccc2nc(-c3ccc(OC4CCN(C5CCC5)CC4)cc3)n(C)c(=O)c2c1 |  |
| 10 µM | Cc1cccc2c(=O)n(C)c(-c3ccc(OC4CCN(C5CCC5)CC4)cc3)nc12 |  |
| 6.5 µM | Cn1c(-c2ccc(OC3CCN(C4CCC4)CC3)cc2)nc2c(Cl)cccc2c1=O |  |
| 4.2 µM | COc1cccc2nc(-c3ccc(OC4CCN(C5CCC5)CC4)cc3)n(C)c(=O)c12 |  |
| 6.2 µM | Cn1c(-c2ccc(OC3CCN(C4CCCC4)CC3)cc2)nc2ccccc2c1=O |  |
| 2.2 µM | Cn1c(-c2ccc(OCCCN3CCCC3)cc2)nc2ccccc2c1=O |  |
| > 10 µM | COc1nccc2c(=O)n(C)c(-c3ccc(OC4CCN(C5CCC5)CC4)cc3)nc12 | IC50 (Histamine H1 receptor): > 10 µM; IC50 (Histamine H2 receptor): > 10 µM; IC50 (Histamine H4 receptor): > 10 µM; clearance (Rattus norvegicus [2]): 29 mL/min/kg; Vd [3]: 4.8 L/kg; half-life [4]: 2 h; Cmax [5]: 570 nM; AUC(0-inf) [6]: 2.1 µM·h; bioavailability [7]: 48%; Drug uptake (Brain): 2.96 nmol/g; concentration (Rattus norvegicus [8]): 2080 nM; Activity (Rattus norvegicus [9]): Dose-dependent effect |
| 2.9 µM | Cn1c(-c2ccc(OCCCN3CCCCC3)cc2)nc2ccccc2c1=O |  |
| 1.3 µM | CCn1c(-c2ccc(OCCCN3CCCCC3)cc2)nc2ccccc2c1=O |  |
| 2.4 µM | O=c1c2ccccc2nc(-c2ccc(OCCCN3CCCCC3)cc2)n1-c1ccccc1 |  |
| > 10 µM | COc1ccc2c(=O)n(C)c(-c3ccc(OC4CCN(C5CCC5)CC4)cc3)nc2c1 |  |
| > 10 µM | COc1cccc2c(=O)n(C)c(-c3ccc(OC4CCN(C5CCC5)CC4)cc3)nc12 |  |
| 6.3 µM | Cn1c(-c2ccc(OC3CCN(C4CCC4)CC3)cc2)nc2ccccc2c1=O |  |
| 6.5 µM | Cc1nc2ccccc2c(=O)n1-c1ccc(OCCCN2CCCCC2)cc1 |  |
| > 10 µM | Cn1c(-c2ccc(OC3CCN(C4CCC4)CC3)cc2)nc2c(C(F)(F)F)cccc2c1=O |  |
| 4.5 µM | Cn1c(-c2ccc(OC3CCN(C4CCC4)CC3)cc2)nc2c(F)cccc2c1=O |  |
